{
  "source": "paper PMC7838189",
  "about": "“Natural podophyllotoxin analog 4DPG attenuates EMT and colorectal cancer progression via activation of checkpoint kinase 2” (Cell Death Discovery, 2021)",
  "key": {"[1]": {"test_system": "HT-29/5-FU-R cells", "experiment": "Western blotting of Chk2 after 4DPG", "assay_type": "cell-based", "conditions": "48 h, vs vehicle", "description": "4DPG, a podophyllotoxin class of natural product anticancer compound (Supplementary Fig. S2A) has been recently described by our research group for its potent antitumor and anti-metastatic properties against aggressive cancers[31],[32]. Further, 4DPG augments phosphorylation and activation of Chk2 (Thr68) leading to suppression of EMT and invasiveness of p53-defective cancer cells. To investigate the effect of 4DPG on phosphorylation and expression levels of Chk2 in HCT-116/5-FU-R, SW-620/5-FU-R, and HT-29/5-FU-R cells, we treated these cells for 48 h with increasing concentrations of the compound, and whole-cell lysates were subjected to western blotting analysis. […] To determine the effect of 4DPG on the invasion abilities of these 5-FU-R cells, we performed in situ fluorescent gelatin degradation assay following our pre-standardized protocol[31],[37]. In physiological conditions, this assay mimics the extracellular matrix degradation by aggressive tumor cells undergoing invasion–metastasis process.\nWe adhered to the previously published protocol for western blotting. To sum up, cells were exposed to the respective treatments (mentioned in figure legends). Post-treatment, cells were lysed with cell lysis buffer, and cell lysates were collected after centrifugation. Bradford assay was performed to quantify the protein concentration. […]"}, "[2]": {"test_system": "RBCs", "experiment": "In vitro hemolysis assay", "assay_type": "cell-based", "conditions": "20 µg/mL (highest tested concentration), 1 h incubation", "protocol": "Solubility and distribution coefficient are among the major physicochemical properties of a drug that greatly determine its absorption in physiological compartments. […] The distribution coefficient (logD, pH 7.4) of 4DPG was determined to be 0.815 ± 0.19, which indicates the slightly lipophilic nature of the molecule. For administration to animals, the appropriate quantity of 4DPG was formulated in the pre-calculated volume of saline with the help of a solubilizer (Tween-80). Next, to assess the hemocompatibility of 4DPG and establish if the compound could be considered safe for intravenous (i.v.) administration, we performed in vitro hemolysis assay by incubating the RBCs with increasing concentrations of the molecule.\nThe distribution coefficient, solubility, and hemocompatibility of 4DPG was determined adopting our previously described protocol[37],[40]. For hemolysis assay, increasing concentrations (5, 10, and 20 µg/mL) of 4DPG were employed. Distilled water (DW) and PBS were considered as […].\nSupplementary Figure S4. Hemocompatibility and exposure of 4DPG. (A) Representative images of RBC suspension incubated with distilled water (negative control), PBS (positive control), and increasing concentrations of 4DPG for 1 h. (B) Quantification of hemolysis in above treatment conditions by measuring the optical density at 540 nm. […]"}, "[3]": {"experiment": "Pharmacokinetic study, single i.v. dose", "assay_type": "in vivo", "conditions": "5 mg/kg i.v. single dose, Balb/c mice", "protocol": "Subsequently, to evaluate the exposure of 4DPG in healthy animals, we performed PK analysis in Balb/c mice by administering a single dose (5 mg/kg) of the compound intravenously.\nThe PK studies were performed following our standardized procedure with minor modifications. To determine the PK profile of 4DPG, healthy male Balb/c mice (body weight 25–30 g each) were employed in the study. Six animals were enrolled for each sampling time point and a total of 11 time points (0.083, 0.25, 0.5, 1, 2, 4, 6, 8, 12, 16, and 24 h) were involved in the study. Control group of mice were administered with saline and test groups of animals received a single dose of 4DPG (5 mg/kg, body weight) intravenously. After the successful injections of the molecule, 100 µL of plasma was collected from each animal enrolled at the above sampling time points and the plasma proteins were precipitated with 400 µL of acetonitrile. Following extraction into the solvent and subsequent filtration, the compound was analyzed using a 6410 triple-quadrupole LC–MS/MS system (Agilent Technologies, USA). Individual samples collected at each time point were quantified through single ion monitoring (SIM) by comparing with the standard calibration curve prepared using Agilent Mass Hunter software (version B.04.00) (detailed description is provided in Supplementary information file). Essential PK parameters such as half-life (t1/2), C initial (C0), area under the curve (AUC0–∞), volume of distribution (Vd), clearance (Cl), and mean residence time (MRT) were calculated utilizing noncompartmental pharmacokinetic data analysis."}},
  "note": "Several values for one entry are separate records, joined by “and”; a condition that tells them apart may be missing. Equal entries are not always repeated.",
  "data": [
    {"smiles": "COc1cc([C@@H]2c3cc4c(cc3C[C@H]3COC(=O)[C@@H]32)OCO4)cc(OC)c1O[C@@H]1O[C@H](CO)[C@@H](O)[C@H](O)[C@H]1O", "note": "[4DPG, 4′-demethyl-deoxypodophyllotoxin glucoside]", "values": [
      {"measurement": "increase in p-Chk2 (Thr68) level", "setting": "[1]; 300 nM (sub-toxic)", "result": 7.9, "unit": "fold"},
      {"measurement": "expression of Chk2 (total)", "setting": "[1]", "result": "did not alter significantly"},
      {"measurement": "hemolysis", "setting": "[2]", "result": 5.8, "unit": "%"},
      {"measurement": "Area under curve (AUC0-t)", "setting": "[3]", "result": 10068.884, "unit": "ng·h/mL"},
      {"measurement": "Area under curve (AUC0-∞)", "setting": "[3]", "result": "10104.05 ng·h/mL and 10104.053 ng·h/mL"},
      {"measurement": "Clearance (Cl)", "setting": "[3]", "result": 8.25, "unit": "mL/min/kg"},
      {"measurement": "Half-life (t1/2)", "setting": "[3]", "result": 39.2, "unit": "min"},
      {"measurement": "Mean residence time (MRT)", "setting": "[3]", "result": 18.4, "unit": "min"},
      {"measurement": "Volume of distribution (Vd)", "setting": "[3]", "result": 0.466, "unit": "L/kg"},
      {"measurement": "C initial (C0)", "setting": "[3]; plasma", "result": 10165.18, "unit": "ng/mL"}
    ]}
  ]
}
